How the values were obtained:
[1] = target: T1, Zea mays EPSPS variant Zm-H6 (868-H6) with H54E (H6-H54E) (Zea mays, UniProt O24566, A1R/A3W/A415G/A71Q/D401G/E301S/E390G/G101A/H53E/I207L/K83R/L97C/T278A/T360S/T440Q/V437R); experiment: Substrate saturation kinetic analysis with glyphosate, H6-H54E; assay type: biochemical
T1 construct: 868-H6 plus H54E; E. coli BL21(DE3), Ni-NTA purified
T1 sequence (O24566 with tags, fused parts or gaps A1R/A3W/H53E/A71Q/K83R/L97C/G101A/I207L/T278A/E301S/T360S/E390G/D401G/A415G/V437R/T440Q): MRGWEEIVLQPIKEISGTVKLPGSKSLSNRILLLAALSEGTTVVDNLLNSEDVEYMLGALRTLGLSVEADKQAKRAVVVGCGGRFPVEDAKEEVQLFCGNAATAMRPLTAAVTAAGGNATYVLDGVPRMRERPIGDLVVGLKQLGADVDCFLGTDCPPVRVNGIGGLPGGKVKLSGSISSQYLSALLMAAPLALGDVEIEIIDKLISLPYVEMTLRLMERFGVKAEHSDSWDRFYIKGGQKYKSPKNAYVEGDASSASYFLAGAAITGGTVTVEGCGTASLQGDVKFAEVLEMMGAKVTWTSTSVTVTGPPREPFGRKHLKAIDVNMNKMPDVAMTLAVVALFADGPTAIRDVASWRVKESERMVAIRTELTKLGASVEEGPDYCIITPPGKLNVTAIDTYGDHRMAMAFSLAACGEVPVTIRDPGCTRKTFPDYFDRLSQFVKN

[2] = target: Zea mays EPSPS variant 868-H6 (A2R, A4W, A72Q, K84R, L98C, G102A, I208L, T279A, E302S, T361S, E391G, D402G, A416G, V438R, T441Q), SEQ ID NO:5 (Zea mays, UniProt O24566, A1R/A3W/A415G/A71Q/D401G/E301S/E390G/G101A/I207L/K83R/L97C/T278A/T360S/T440Q/V437R); experiment: EPSPS substrate saturation kinetics, 868-H6; assay type: biochemical
Experimental: EPSPS activity was determined by quantifying the phosphate generated from the EPSPS reaction. Release of inorganic phosphate was coupled to reaction with 2-amino-6-mercapto-7-methylpurine ribonucleoside, catalyzed by purine-nucleoside phosphorylase (M R Webb, Proc. Natl. Acad. Sci. 89:4884-4887, 1992). The absorbance change that occurs was monitored at 360 nm, where the extinction is 11,200 M^−1 cm^−1, with a Spectramax plate reader (Molecular Devices). To determine kinetic parameters, the varied substrate was present at seven concentrations (the eighth being the blank, containing no substrate) ranging from 4 to 400 uM and the unvaried substrate present at saturation. […] Reactions were monitored with a Spectramax plate reader. […] KI was then calculated from the following form of the Michaelis-Menten equation for competitive inhibition: KI=KM[I]/(KM app−KM) KM approximates the dissociation constant of the enzyme-substrate complex while kcat is the rate of conversion of substrate to product when the substrate concentration is saturating. kcat/KM is a widely accepted parameter for catalytic efficiency when substrate concentration is low (˜KM). […] The parameter kcat/KM×KI is used to quantify both catalytic efficiency and insensitivity and thus the overall fitness of the enzyme. […]

## O=C(O)CNCP(=O)(O)O [glyphosate, N-phosphonomethylglycine]
[1]
  Ki: 488 µM
[1]; substrate saturation, H6-H54E
  (kcat/KM)*KI: 4340
[2]
  Ki: 629 µM
[2]; PEP as substrate, glyphosate as inhibitor
  (kcat/KM)*KI: 10070

Source: patent US11549123B2, “Plant EPSP synthases and methods of use” (PIONEER HI-BRED INTERNATIONAL, INC., priority 2015, dated 2023)
